The nature of this test: Evaluated for the activation of human thrombin receptor measured by platelet aggregation.

pEC50: −log10 of the molar value. Where a SMILES comes first, the peptide text is derived from it. [ ]: non-standard residue; d: D form. Phe(4-CH2NH2) = NCc1ccc(C[C@H](N)C(=O)O)cc1; Phe(4-Cl) = N[C@@H](Cc1ccc(Cl)cc1)C(=O)O; Phe(4-NH2) = Nc1ccc(C[C@H](N)C(=O)O)cc1; Phe(4-F) = N[C@@H](Cc1ccc(F)cc1)C(=O)O; NMeR = CN[C@@H](CCCNC(=N)N)C(=O)O; hArg = N=C(N)NCCCC[C@H](N)C(=O)O; Cha = N[C@@H](CC1CCCCC1)C(=O)O; NMeL = CN[C@@H](CC(C)C)C(=O)O; Phg = N[C@H](C(=O)O)c1ccccc1; Aib = CC(C)(N)C(=O)O; GABA = NCCCC(=O)O

Broadly, the pEC50 is the EC50 on a negative log10 scale, so that one unit is a factor of ten. Low readings indicate a large EC50, high ones a small EC50. The molecule `CC(C)C[C@H](NC(=O)[C@@H](CC(C)C)NC(=O)[C@H](Cc1ccccc1)NC(=O)[C@@H](N)CO)C(=O)N[C@@H](CCCNC(=N)N)C(N)=O` [(R)-2-[(S)-2-((S)-2-Amino-3-hydroxy-propionylamino)-3-phenyl-propionylamino]-4-methyl-pentanoic acid [(S)-1-((S)-1-carbamoyl-4-guanidino-butylcarbamoyl)-3-methyl-butyl]-amide] had a pEC50 of less than 3.10.
The same measure for `NC(=O)[C@H](Cc1ccccc1)NC(=O)[C@@H](N)CO` [(S)-2-Amino-N-((S)-1-carbamoyl-2-phenyl-ethyl)-3-hydroxy-propionamide]: less than 3.10; for `CC(C)C[C@H](NC(=O)[C@H](C)NC(=O)[C@@H](N)CO)C(=O)N[C@@H](CC(C)C)C(=O)N[C@@H](CCCNC(=N)N)C(N)=O` [(S)-2-[(S)-2-((S)-2-Amino-3-hydroxy-propionylamino)-propionylamino]-4-methyl-pentanoic acid [(S)-1-((S)-1-carbamoyl-4-guanidino-butylcarbamoyl)-3-methyl-butyl]-amide] (H-SALLR-NH2): less than 3.10; for `CC(C)C[C@H](NC(=O)[C@H](CC(C)C)NC(=O)[C@@H](NC(=O)[C@H](C)N)c1ccccc1)C(=O)N[C@@H](CCCNC(=N)N)C(N)=O` [(S)-2-[(S)-2-((S)-2-Amino-propionylamino)-2-phenyl-acetylamino]-4-methyl-pentanoic acid [(S)-1-((S)-1-carbamoyl-4-guanidino-butylcarbamoyl)-3-methyl-butyl]-amide] (H-A[Phg]LLR-NH2): less than 3.10.
The result for `CC(C)C[C@H](NC(=O)[C@H](CC(C)C)NC(=O)[C@H](Cc1ccccc1)N(C)C(=O)[C@@H](N)CO)C(=O)N[C@@H](CCCNC(=N)N)C(N)=O` [(S)-2-{(S)-2-[((S)-2-Amino-3-hydroxy-propionyl)-methyl-amino]-3-phenyl-propionylamino}-4-methyl-pentanoic acid [(S)-1-((S)-1-carbamoyl-4-guanidino-butylcarbamoyl)-3-methyl-butyl]-amide] reads less than 3.10.
The same measure for `CC(C)C[C@H](NC(=O)[C@H](CC(C)C)NC(=O)[C@H](Cc1ccc(CN)cc1)NC(=O)[C@H](C)N)C(=O)N[C@@H](CCCNC(=N)N)C(N)=O` [(S)-2-[(S)-3-(4-Aminomethyl-phenyl)-2-((S)-2-amino-propionylamino)-propionylamino]-4-methyl-pentanoic acid [(S)-1-((S)-1-carbamoyl-4-guanidino-butylcarbamoyl)-3-methyl-butyl]-amide] (H-A[Phe(4-CH2NH2)]LLR-NH2): 3.10; for `CC(C)C[C@H](NC(=O)[C@H](CC(C)C)NC(=O)[C@H](Cc1ccccc1)NC(=O)[C@@H](N)CO)C(=O)N[C@@H](CCCNC(=N)N)C(N)=O` [(S)-2-[(S)-2-((S)-2-Amino-3-hydroxy-propionylamino)-3-phenyl-propionylamino]-4-methyl-pentanoic acid [(S)-1-((S)-1-carbamoyl-4-guanidino-butylcarbamoyl)-3-methyl-butyl]-amide]: 6.00.
`CC(C)C[C@H](NC(=O)[C@H](CC(C)C)NC(=O)[C@H](Cc1ccccc1)NC(=O)C(C)(C)N)C(=O)N[C@@H](CCCNC(=N)N)C(N)=O` [(S)-2-[(S)-2-(2-Amino-2-methyl-propionylamino)-3-phenyl-propionylamino]-4-methyl-pentanoic acid [(S)-1-((S)-1-carbamoyl-4-guanidino-butylcarbamoyl)-3-methyl-butyl]-amide] (H-[Aib]FLLR-NH2) had a pEC50 of 3.38.
The same measure for `CC(C)C[C@H](NC(=O)[C@H](CC(C)C)NC(=O)[C@H](Cc1ccccc1)NC(=O)[C@@H](N)CO)C(=O)N[C@@H](CCCN=C(N)N)C(=O)N[C@@H](CC(N)=O)C(=O)N1CCC[C@H]1C(N)=O` [1-{(S)-2-[(S)-2-((S)-2-{(S)-2-[(S)-2-((S)-2-Amino-3-hydroxy-propionylamino)-3-phenyl-propionylamino]-4-methyl-pentanoylamino}-4-methyl-pentanoylamino)-5-guanidino-pentanoylamino]-3-carbamoyl-propionyl}-pyrrolidine-2-carboxylic acid amide] (H-SFLLRNP-NH2): 6.30; for `CC(C)C[C@H](NC(=O)[C@H](Cc1ccccc1)NC(=O)[C@H](C)N)C(=O)N[C@@H](CC(C)C)C(=O)N(C)[C@@H](CCCNC(=N)N)C(N)=O` [(S)-2-{(S)-2-[(S)-2-((S)-2-Amino-propionylamino)-3-phenyl-propionylamino]-4-methyl-pentanoylamino}-4-methyl-pentanoic acid ((S)-1-carbamoyl-4-guanidino-butyl)-methyl-amide] (H-AFLL[NMeR]-NH2): 3.10.
As to `CC(C)C[C@H](NC(=O)[C@H](CC(C)C)NC(=O)[C@H](Cc1ccc(N)cc1)NC(=O)[C@H](C)N)C(=O)N[C@@H](CCCNC(=N)N)C(N)=O` [(S)-2-[(S)-3-(4-Amino-phenyl)-2-((S)-2-amino-propionylamino)-propionylamino]-4-methyl-pentanoic acid [(S)-1-((S)-1-carbamoyl-4-guanidino-butylcarbamoyl)-3-methyl-butyl]-amide] (H-A[Phe(4-NH2)]LLR-NH2), the pEC50 is 3.63.
The same measure for `CC(C)C[C@H](NC(=O)[C@H](C)NC(=O)[C@H](Cc1ccccc1)NC(=O)[C@@H](N)CO)C(=O)N[C@@H](CCCNC(=N)N)C(N)=O` [(S)-2-{(S)-2-[(S)-2-((S)-2-Amino-3-hydroxy-propionylamino)-3-phenyl-propionylamino]-propionylamino}-4-methyl-pentanoic acid ((S)-1-carbamoyl-4-guanidino-butyl)-amide] (H-SFALR-NH2): 5.89.
The result for `CC(C)C[C@H](NC(=O)[C@H](CC(C)C)NC(=O)[C@H](Cc1ccccc1)NC(=O)CCCN)C(=O)N[C@@H](CCCNC(=N)N)C(N)=O` [(S)-2-[(S)-2-(4-Amino-butyrylamino)-3-phenyl-propionylamino]-4-methyl-pentanoic acid [(S)-1-((S)-1-carbamoyl-4-guanidino-butylcarbamoyl)-3-methyl-butyl]-amide] (H-[GABA]FLLR-NH2) reads 3.14; that for `CC(C)C[C@H](NC(=O)[C@H](Cc1ccccc1)NC(=O)[C@@H](N)CO)C(=O)N[C@@H](CC(C)C)C(=O)N[C@H](CCCNC(=N)N)C(N)=O` [(S)-2-[(S)-2-((S)-2-Amino-3-hydroxy-propionylamino)-3-phenyl-propionylamino]-4-methyl-pentanoic acid [(S)-1-((R)-1-carbamoyl-4-guanidino-butylcarbamoyl)-3-methyl-butyl]-amide], 3.96.
The result for `CC(C)C[C@H](NC(=O)[C@H](CC(C)C)NC(=O)[C@H](Cc1ccccc1)NC(=O)CN)C(=O)N[C@@H](CCCNC(=N)N)C(N)=O` [(S)-2-[(S)-2-(2-Amino-acetylamino)-3-phenyl-propionylamino]-4-methyl-pentanoic acid [(S)-1-((S)-1-carbamoyl-4-guanidino-butylcarbamoyl)-3-methyl-butyl]-amide] (H-GFLLR-NH2) reads 5.92; that for `CC(C)C[C@H](NC(=O)[C@H](CC(C)C)NC(=O)[C@H](Cc1ccc(F)cc1)NC(=O)[C@H](C)N)C(=O)N[C@@H](CCCCNC(=N)N)C(N)=O` [(S)-2-((S)-2-{(S)-2-[(S)-2-((S)-2-Amino-propionylamino)-3-(4-fluoro-phenyl)-propionylamino]-4-methyl-pentanoylamino}-4-methyl-pentanoylamino)-6-guanidino-hexanoic acid amide] (H-A[Phe(4-F)]LL[hArg]-NH2), 6.92; that for `CC(C)C[C@H](NC(=O)[C@H](CC(C)C)NC(=O)[C@H](Cc1ccc(F)cc1)NC(=O)[C@H](C)N)C(=O)N[C@@H](CCCNC(=N)N)C(N)=O` [(S)-2-[(S)-2-((S)-2-Amino-propionylamino)-3-(4-fluoro-phenyl)-propionylamino]-4-methyl-pentanoic acid [(S)-1-((S)-1-carbamoyl-4-guanidino-butylcarbamoyl)-3-methyl-butyl]-amide] (H-A[Phe(4-F)]LLR-NH2), 6.70.
For the molecule `CC(C)C[C@H](NC(=O)[C@H](Cc1ccccc1)NC(=O)[C@H](C)N)C(=O)N[C@@H](CC1CCCCC1)C(=O)N[C@@H](CCCNC(=N)N)C(N)=O` [(S)-2-[(S)-2-((S)-2-Amino-propionylamino)-3-phenyl-propionylamino]-4-methyl-pentanoic acid [(S)-1-((S)-1-carbamoyl-4-guanidino-butylcarbamoyl)-2-cyclohexyl-ethyl]-amide] (H-AFL[Cha]R-NH2), the pEC50 is 6.40.
On to `CC(C)C[C@H](NC(=O)[C@H](CC(C)C)N(C)C(=O)[C@H](Cc1ccccc1)NC(=O)[C@@H](N)CO)C(=O)N[C@@H](CCCNC(=N)N)C(N)=O` [(S)-2-{[(S)-2-((S)-2-Amino-3-hydroxy-propionylamino)-3-phenyl-propionyl]-methyl-amino}-4-methyl-pentanoic acid [(S)-1-((S)-1-carbamoyl-4-guanidino-butylcarbamoyl)-3-methyl-butyl]-amide], for which the pEC50 was 3.46.
The same measure for `CC(C)C[C@H](NC(=O)[C@H](CC(C)C)NC(=O)[C@H](Cc1ccccc1)NC(=O)[C@@H](N)CO)C(=O)N[C@@H](CCCNC(=N)N)C(=O)N[C@@H](CC(N)=O)C(=O)N1CCC[C@H]1C(=O)N[C@@H](CC(N)=O)C(=O)N[C@@H](CC(=O)O)C(N)=O` [SFLLRDPQD-NH2] (H-SFLLRNPND-NH2): 5.48.
The result for `CC(C)C[C@H](NC(=O)[C@H](Cc1ccccc1)NC(=O)[C@H](C)N)C(=O)N(C)[C@@H](CC(C)C)C(=O)N[C@@H](CCCNC(=N)N)C(N)=O` [(S)-2-[(S)-2-((S)-2-Amino-propionylamino)-3-phenyl-propionylamino]-4-methyl-pentanoic acid [(S)-1-((S)-1-carbamoyl-4-guanidino-butylcarbamoyl)-3-methyl-butyl]-methyl-amide] (H-AFL[NMeL]R-NH2) reads 3.59; that for `CC(C)C[C@H](NC(=O)[C@H](CC(C)C)NC(=O)[C@H](Cc1ccc(Cl)cc1)NC(=O)[C@H](C)N)C(=O)N[C@@H](CCCNC(=N)N)C(N)=O` [(S)-2-[(S)-2-((S)-2-Amino-propionylamino)-3-(4-chloro-phenyl)-propionylamino]-4-methyl-pentanoic acid [(S)-1-((S)-1-carbamoyl-4-guanidino-butylcarbamoyl)-3-methyl-butyl]-amide] (H-A[Phe(4-Cl)]LLR-NH2), 6.15.

The values above are taken from BindingDB's records for doi:10.1021/jm00020a029 (Merck Research Laboratories, 1995).
